pKi: −log10 of the molar value.
What was measured:
[1] = target: Sodium-dependent dopamine transporter (Homo sapiens, UniProt Q01959); experiment: Displacement of [125I]RTI55 from cloned human DAT expressed in HEK293 cells; type: cell-based
[2] = target: Sodium-dependent serotonin transporter (Homo sapiens, UniProt P31645); experiment: biochemical; type: cell-based, HEK293
[3] = target: Sodium-dependent noradrenaline transporter (Homo sapiens, UniProt P23975); experiment: Displacement of [125I]RTI55 from cloned human NET expressed in HEK293 cells; type: cell-based
[4] = tested on: Mus musculus; experiment: Antidepressant activity in ip dosed mouse assessed as time to reach peak stimulation of locomotor activity; type: functional
[5] = tested on: Mus musculus; experiment: Antidepressant activity in ip dosed mouse assessed as duration of locomotor activity; type: functional
[6] = tested on: Mus musculus; experiment: Antidepressant activity in ip dosed mouse assessed as stimulation of locomotor activity; type: functional
[7] = tested on: Mus musculus; experiment: Antidepressant activity in ip dosed mouse assessed as stimulation of locomotor activity relative to cocaine; type: functional
[8] = tested on: Rattus norvegicus; experiment: Effect on behavioural activity in rat assessed as cocaine-induced lever response at 5 mg/kg, ip pretreated with cocaine for 15 mins by drug-discrimination studies; type: functional; details: route intraperitoneal
[9] = tested on: Rattus norvegicus; experiment: Effect on behavioural activity in rat assessed as cocaine-induced lever response at 2.5 mg/kg, po pretreated with cocaine for 45 mins by drug-discrimination studies; type: functional
[10] = tested on: Rattus norvegicus; experiment: Effect on behavioural activity in rat assessed as cocaine-induced lever response at 10 mg/kg, po pretreated with cocaine for 180 mins by drug-discrimination studies; type: functional
[11] = tested on: Rattus norvegicus; experiment: Effect on behavioural activity in po dosed rat assessed as cocaine-induced lever response pretreated with cocaine by drug-discrimination studies; type: functional
[12] = tested on: Rattus norvegicus; experiment: Effect on behavioural activity in rat assessed as cocaine-induced lever response at 25 mg/kg, ip pretreated with cocaine for 15 mins by drug-discrimination studies; type: functional; details: route intraperitoneal
[13] = tested on: Rattus norvegicus; experiment: Effect on behavioural activity in rat assessed as cocaine-induced lever response at 5 mg/kg, po pretreated with cocaine for 45 mins by drug-discrimination studies; type: functional
[14] = tested on: Rattus norvegicus; experiment: Effect on behavioural activity in rat assessed as cocaine-induced lever response at 5 mg/kg, po pretreated with cocaine for 360 mins by drug-discrimination studies; type: functional
[15] = tested on: Rattus norvegicus; experiment: Effect on behavioural activity in rat assessed as cocaine-induced lever response at 2.5 mg/kg, ip pretreated with cocaine for 15 mins by drug-discrimination studies; type: functional; details: route intraperitoneal
[16] = tested on: Rattus norvegicus; experiment: Effect on behavioural activity in rat assessed as cocaine-induced lever response at 10 mg/kg, ip pretreated with cocaine for 15 mins by drug-discrimination studies; type: functional; details: route intraperitoneal
[17] = tested on: Rattus norvegicus; experiment: Effect on behavioural activity in rat assessed as cocaine-induced lever response at 2.5 mg/kg, po pretreated with cocaine for 180 mins by drug-discrimination studies; type: functional
[18] = tested on: Rattus norvegicus; experiment: Effect on behavioural activity in rat assessed as cocaine-induced lever response at 2.5 mg/kg, po pretreated with cocaine for 360 mins by drug-discrimination studies; type: functional
[19] = tested on: Rattus norvegicus; experiment: Effect on behavioural activity in ip dosed rat assessed as cocaine-induced lever response pretreated with cocaine by drug-discrimination studies; type: functional
[20] = tested on: Rattus norvegicus; experiment: Effect on behavioural activity in rat assessed as cocaine-induced lever response at 10 mg/kg, po pretreated with cocaine for 360 mins by drug-discrimination studies; type: functional
[21] = tested on: Rattus norvegicus; experiment: Effect on behavioural activity in rat assessed as cocaine-induced lever response at 5 mg/kg, po pretreated with cocaine for 180 mins by drug-discrimination studies; type: functional
[22] = tested on: Rattus norvegicus; experiment: Effect on behavioural activity in rat assessed as cocaine-induced lever response at 2.5 mg/kg, po pretreated with cocaine for 90 mins by drug-discrimination studies; type: functional
[23] = tested on: Rattus norvegicus; experiment: Effect on behavioural activity in rat assessed as cocaine-induced lever response at 10 mg/kg, po pretreated with cocaine for 90 mins by drug-discrimination studies; type: functional

Sequence of Sodium-dependent dopamine transporter (Q01959 whole entry): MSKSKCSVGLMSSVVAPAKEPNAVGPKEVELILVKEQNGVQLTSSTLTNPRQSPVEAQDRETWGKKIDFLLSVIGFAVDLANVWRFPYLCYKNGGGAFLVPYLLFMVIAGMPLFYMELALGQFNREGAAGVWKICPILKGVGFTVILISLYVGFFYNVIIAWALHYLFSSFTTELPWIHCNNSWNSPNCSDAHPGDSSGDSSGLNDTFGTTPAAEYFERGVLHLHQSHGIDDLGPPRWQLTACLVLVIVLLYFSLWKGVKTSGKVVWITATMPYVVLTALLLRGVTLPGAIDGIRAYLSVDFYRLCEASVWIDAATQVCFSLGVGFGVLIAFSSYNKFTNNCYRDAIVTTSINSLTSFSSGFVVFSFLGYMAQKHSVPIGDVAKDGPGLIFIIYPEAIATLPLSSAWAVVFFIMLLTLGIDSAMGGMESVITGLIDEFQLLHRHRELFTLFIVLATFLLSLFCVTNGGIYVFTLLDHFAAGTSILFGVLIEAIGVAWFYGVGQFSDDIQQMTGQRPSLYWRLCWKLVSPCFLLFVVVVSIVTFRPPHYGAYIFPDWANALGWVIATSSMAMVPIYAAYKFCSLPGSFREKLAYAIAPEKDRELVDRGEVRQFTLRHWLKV
Sequence of Sodium-dependent serotonin transporter (P31645 whole entry): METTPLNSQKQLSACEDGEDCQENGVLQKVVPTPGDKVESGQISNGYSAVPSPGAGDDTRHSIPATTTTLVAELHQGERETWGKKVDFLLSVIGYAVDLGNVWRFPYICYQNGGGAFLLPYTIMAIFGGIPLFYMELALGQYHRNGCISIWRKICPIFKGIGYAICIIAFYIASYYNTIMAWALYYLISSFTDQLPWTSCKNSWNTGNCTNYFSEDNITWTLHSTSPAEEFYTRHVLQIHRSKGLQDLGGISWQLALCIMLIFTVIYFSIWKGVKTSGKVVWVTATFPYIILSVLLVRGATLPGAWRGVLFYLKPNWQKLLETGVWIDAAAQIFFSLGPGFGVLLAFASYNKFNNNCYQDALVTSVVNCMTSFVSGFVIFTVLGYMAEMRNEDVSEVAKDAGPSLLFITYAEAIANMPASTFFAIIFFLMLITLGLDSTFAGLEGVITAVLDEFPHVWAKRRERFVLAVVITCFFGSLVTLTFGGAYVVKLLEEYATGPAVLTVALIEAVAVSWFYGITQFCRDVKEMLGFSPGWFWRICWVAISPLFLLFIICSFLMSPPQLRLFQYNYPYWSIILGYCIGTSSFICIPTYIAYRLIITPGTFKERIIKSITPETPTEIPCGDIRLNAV
Sequence of Sodium-dependent noradrenaline transporter (P23975 whole entry): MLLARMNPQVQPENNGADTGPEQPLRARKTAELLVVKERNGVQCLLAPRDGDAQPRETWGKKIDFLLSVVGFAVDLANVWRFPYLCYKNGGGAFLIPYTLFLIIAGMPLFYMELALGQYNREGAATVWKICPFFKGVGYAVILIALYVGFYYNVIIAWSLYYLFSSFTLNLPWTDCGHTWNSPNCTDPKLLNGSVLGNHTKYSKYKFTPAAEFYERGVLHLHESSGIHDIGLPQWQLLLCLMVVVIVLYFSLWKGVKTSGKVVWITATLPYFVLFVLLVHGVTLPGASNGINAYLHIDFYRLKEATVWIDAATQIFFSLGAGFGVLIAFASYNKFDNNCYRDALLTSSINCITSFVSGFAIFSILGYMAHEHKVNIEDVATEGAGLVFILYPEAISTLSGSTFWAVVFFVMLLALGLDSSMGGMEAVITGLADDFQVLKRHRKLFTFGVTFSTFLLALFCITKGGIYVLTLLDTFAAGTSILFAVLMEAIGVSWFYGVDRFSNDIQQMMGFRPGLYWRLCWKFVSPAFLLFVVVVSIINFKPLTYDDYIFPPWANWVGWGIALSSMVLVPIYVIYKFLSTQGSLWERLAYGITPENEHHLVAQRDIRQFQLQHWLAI

CC(NC(C)(C)C)C(=O)c1cccs1 (stereo not given)
pKi [1]: < 5.00
pKi [2]: < 5.00
pKi [3]: < 5.00

Cc1ccc(C(=O)C(C)NC(C)(C)C)cc1Cl (stereo not given)
Time to peak locomotor stimulation [4]: 10 min
Time [5]: 60 min
ED50 [6]: ≥ 35.5 mg/kg
Activity [7]: >=77%

CC(C)(C)NC1CCc2ccc(Cl)cc2C1=O (stereo not given)
pKi [1]: < 5.00
ED50 [6]: 2.6 mg/kg
pKi [2]: < 5.00
pKi [3]: < 5.00

CC(C(=O)c1cccc(Cl)c1)N(C)C (stereo not given)
Activity [8]: 83.3%
Time to peak locomotor stimulation [4]: 90 min
Activity [9]: 19%
Activity [10]: 33%
ED50 [11]: 5.3 mg/kg
Time [5]: 180 min
ED50 [6]: 9.3 mg/kg
Activity [7]: 64%
Activity [12]: 100%
Activity [13]: 38%
Activity [14]: 0%
Activity [15]: 0%
Activity [16]: 83.2%
Activity [17]: 33%
Activity [18]: 0%
ED50 [19]: 5.9 mg/kg
Activity [20]: 18%
Activity [21]: 0%
Activity [22]: 0%
Activity [23]: 100%
pKi [2]: < 5.00

Cc1cccc(C(=O)C(C)NC(C)(C)C)c1 (stereo not given)
Time to peak locomotor stimulation [4]: 10 min
Time [5]: 50 min
Activity [7]: 76%
pKi [2]: < 5.00
pKi [3]: < 5.00

CCC(NC(C)(C)C)C(=O)c1cccc(Cl)c1 (stereo not given)
Activity [8]: 33.4%
Time to peak locomotor stimulation [4]: 0 min
Time [5]: 360 min
ED50 [6]: 18.6 mg/kg
Activity [7]: 62%
Activity [12]: 100%
Activity [15]: 0.6%
ED50 [19]: 12.2 mg/kg

CCCNC(C)C(=O)c1cccc(Cl)c1 (stereo not given)
pKi [1]: < 5.00
pKi [2]: < 5.00
pKi [3]: < 5.00

CC(CNC(C)(C)C)C(=O)c1cccc(Cl)c1 (stereo not given)
pKi [1]: < 5.00
pKi [2]: < 5.00
pKi [3]: < 5.00

CC1C(=O)c2cc(Cl)ccc2CN1C(C)(C)C (stereo not given)
pKi [1]: < 5.00
pKi [2]: < 5.00
pKi [3]: < 5.00

CC(NC(C)(C)C)C(=O)c1cc(Cl)cc(Cl)c1 (stereo not given)
pKi [1]: < 5.00
pKi [2]: < 5.00
pKi [3]: < 5.00

CCN(CC)C(C)C(=O)c1cccc(Cl)c1 (stereo not given)
Activity [8]: 16.7%
Time to peak locomotor stimulation [4]: 20 min
Time [5]: 130 min
Activity [7]: 90%
Activity [12]: 74.8%
Activity [15]: 0%
Activity [16]: 98.6%
ED50 [19]: 3.2 mg/kg
pKi [2]: < 5.00

COC(=O)[C@H]1[C@@H](OC(=O)c2ccccc2)C[C@@H]2CC[C@H]1N2C [COCAINE]
Time to peak locomotor stimulation [4]: 0 min
Time [5]: 40 min
ED50 [6]: 7.8 mg/kg
ED50 [19]: 5.9 mg/kg

Reference: ChEMBL document CHEMBL1156106 (J Med Chem, 2009)
